Experimental data reported in patent US8263598B2, “Substituted sulfonamide compounds” (Gruenenthal GmbH, priority 2008, dated 2012).

Legend:
[1] = molecular target: T1, B1R receptor of rats (rB1R) (Rattus norvegicus, UniProt P97583); assay: FLIPR Ca2+ assay on rat bradykinin 1 receptor (CHO K1 rB1R cells); type: cell-based; settings: test substance 10 μM; CHO K1 cells with B1R gene of rats; agonist Des-Arg9-bradykinin 100 nM; compared to maximum achievable inhibition
T1 construct: host or cells: CHO K1 cells
T1 sequence (P97583 1-337): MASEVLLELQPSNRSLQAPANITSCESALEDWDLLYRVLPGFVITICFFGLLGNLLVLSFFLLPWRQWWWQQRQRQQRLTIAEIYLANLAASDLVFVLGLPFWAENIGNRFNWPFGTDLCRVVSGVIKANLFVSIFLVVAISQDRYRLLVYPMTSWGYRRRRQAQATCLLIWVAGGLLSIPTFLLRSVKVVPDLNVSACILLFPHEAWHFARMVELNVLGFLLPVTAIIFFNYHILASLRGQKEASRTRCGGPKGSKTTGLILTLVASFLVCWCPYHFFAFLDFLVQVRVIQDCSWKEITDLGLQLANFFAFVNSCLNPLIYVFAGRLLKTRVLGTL
Experimental: (§1) The agonistic or antagonistic action of compounds can be quantified on the bradykinin 1 receptor (B1R) of humans and rats with ectopically expressing cell lines (CHO K1 cells) and with the aid of a Ca^2+-sensitive dye (Fluo-4) in the fluorescent imaging plate reader (FLIPR). The figure in percent activation refers to the Ca^2+ signal after addition of Lys-Des-Arg^9-bradykinin (0.5 nM) and Des-Arg^9-bradykinin (100 nM). Antagonists result in a suppression of the Ca^2+ inflow after the addition of the agonist. Percent inhibition values are given in comparison to the maximum achievable inhibition.
(§2) The agonistic or antagonistic action of substances can be determined on the bradykinin 1 receptor (B1R) of humans and rats by means of the following assay.
(§3) According to this assay the Ca^2+ inflow through the channel is quantified by means of a Ca^2+-sensitive dye (Fluo-4 type, Molecular Probes Europe BV, Leiden, Netherlands), in a Fluorescent Imaging Plate Reader (FLIPR, Molecular Devices, Sunnyvale, USA). Method:
(§4) Chinese hamster ovary cells (CHO K1 cells) are used, which are stably transfected with the human B1R gene (hB1R cells, Euroscreen s.a., Gosselies, Belgium), or with the B1R gene of rats (rB1R cells, Axxam, Milan, Italy). For functional investigations these cells are plated out on black 96-well plates with a clear floor (BD Biosciences, Heidelberg, Germany) in a density of 20,000/25,000 cells/well. The cells are incubated overnight with 10 vol. % FBS (foetal bovine serum, Gibco Invitrogen GmbH, Karlsruhe, Germany) at 37° C. and 5% CO2 in a culture medium (hB1R cells: Nutrient Mixture Ham's F12, Gibco Invitrogen GmbH, Karlsruhe, Germany; rB1R cells: D-MEM/F12, Gibco Invitrogen GmbH, Karlsruhe, Germany). The following day the cells are charged for 60 minutes at 37° C. with 2.13 μM Fluo-4 (Molecular Probes Europe BV, Leiden, Netherlands) in HBSS buffer (Hank's buffered saline solution, Gibco Invitrogen GmbH, Karlsruhe, Germany) together with […] (Sigma-Aldrich, Taufkirchen, Germany) and 10 mM HEPES (Sigma-Aldrich, Taufkirchen, Germany).
(§5) The plates are then washed twice with HBSS buffer and HBSS buffer is added which additionally contains 0.1% BSA (bovine serum albumin; Sigma-Aldrich, Taufkirchen, Germany), 5.6 mM glucose and 0.05% gelatin (Merck KGaA, Darmstadt, Germany). After further incubation for 20 minutes at room temperature the plates are used for the Ca^2+ measurement in the FLIPR. The Ca^2+-dependent fluorescence is measured both before and after the addition of substances (λex=488 nm, λem=540 nm). The quantification is carried out by measuring the highest fluorescence intensity (FC, fluorescence counts) over time.
(§6) The FLIPR protocol consists of two substance additions. First of all test substances (10 μM) are pipetted onto the cells and the Ca^2+ inflow is compared with the control (hB1R: Lys-Des-Arg9-bradykinin 0.5 nM; rB1R: Des-Arg9-bradykinin 100 nM). This gives the result in percent activation referred to the Ca^2+ signal after addition of Lys-Des-Arg9-bradykinin (0.5 nM), bzw. Des-Arg9-bradykinin (100 nM). After 10 minutes' incubation 0.5 nM Lys-Des-Arg9-bradykinin (hB1R) and 100 nM Des-Arg^9-bradykinin (rB1R) are applied and the inflow of Ca^2+ is likewise determined. Antagonists lead to a suppression of the Ca^2+ inflow. The percent inhibition compared to the maximum achievable inhibition is calculated. The compounds show a good activity on both human and rat receptors.
(§7) The agonistic and antagonistic action of the compounds according to the invention on the bradykinin 1 receptor (B1R) of humans and rats were determined as described above. Antagonists lead to a suppression of the Ca^2+ inflow. The % inhibition compared to the maximum achievable inhibition was calculated.

[2] = molecular target: T2, human B1R receptor (hB1R) (Homo sapiens, UniProt P46663); assay: FLIPR Ca2+ assay on human bradykinin 1 receptor (CHO K1 hB1R cells); type: cell-based; settings: test substance 10 μM; CHO K1 cells with human B1R gene; agonist Lys-Des-Arg9-bradykinin 0.5 nM; compared to maximum achievable inhibition
T2 construct: host or cells: CHO K1 cells
T2 sequence (P46663 1-353): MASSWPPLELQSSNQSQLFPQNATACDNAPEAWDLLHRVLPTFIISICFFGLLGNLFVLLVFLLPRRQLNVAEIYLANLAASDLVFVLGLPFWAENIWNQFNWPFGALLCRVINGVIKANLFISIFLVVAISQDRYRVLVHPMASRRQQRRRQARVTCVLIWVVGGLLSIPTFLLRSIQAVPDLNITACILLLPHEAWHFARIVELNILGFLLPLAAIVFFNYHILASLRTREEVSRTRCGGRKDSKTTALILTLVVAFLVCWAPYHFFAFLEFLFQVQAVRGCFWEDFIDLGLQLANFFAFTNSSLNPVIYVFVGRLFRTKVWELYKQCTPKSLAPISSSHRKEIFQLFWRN
Experimental: as §1, §2, §3, §4, §5, §6, §7

COc1cc(C)c(S(=O)(=O)N(C)CCOCC(=O)N2CCn3c(CN4CCCC4)ccc3C2c2ccccc2)c(C)c1 (centres unmarked) [Example 15, 4-methoxy-N,2,6-trimethyl-N-(2-(2-oxo-2-(1-phenyl-6-(pyrrolidin-1-ylmethyl)-3,4-dihydropyrrolo[1,2-a]pyrazin-2(1H)-yl)ethoxy)ethyl)benzenesulfonamide]
inhibition at 10 µM [1]: 101%
inhibition at 10 µM [2]: 101%

COc1cc(C)c(S(=O)(=O)N(C)CCOCC(=O)N2CCn3c(CN4CCCCC4)ccc3C2c2ccccc2)c(C)c1 (centres unmarked) [Example 16, 4-methoxy-N,2,6-trimethyl-N-(2-(2-oxo-2-(1-phenyl-6-(piperidin-1-ylmethyl)-3,4-dihydropyrrolo[1,2-a]pyrazin-2(1H)-yl)ethoxy)ethyl)benzenesulfonamide]
inhibition at 10 µM [1]: 102%
inhibition at 10 µM [2]: 104%

COc1cc(C)c(S(=O)(=O)N(C)CCOCC(=O)N2CCn3c(CN(C)C)ccc3C2c2cccs2)c(C)c1 (centres unmarked) [Example 17, N-(2-(2-(6-((dimethylamino)methyl)-1-(thiophen-2-yl)-3,4-dihydropyrrolo[1,2-a]pyrazin-2(1H)-yl)-2-oxoethoxy)ethyl)-4-methoxy-N,2,6-trimethylbenzene-sulfonamide]
inhibition at 10 µM [1]: 102%
inhibition at 10 µM [2]: 102%

COc1cc(C)c(S(=O)(=O)N(CCOCC(=O)N2CCn3cccc3C2C(C)(C)C)CC(C)C)c(C)c1C (centres unmarked) [Example 18, N-(2-(2-(1-tert-butyl-3,4-dihydropyrrolo[1,2-a]pyrazin-2(1H)-yl)-2-oxoethoxy)ethyl)-N-isobutyl-4-methoxy-2,3,6-trimethylbenzenesulfonamide]
inhibition at 10 µM [1]: 98%
inhibition at 10 µM [2]: 82%

COc1cc(C)c(S(=O)(=O)N(CCOCC(=O)N2CCn3cccc3C2c2cccnc2)CC(C)C)c(C)c1C (centres unmarked) [Example 19, N-isobutyl-4-methoxy-2,3,6-trimethyl-N-(2-(2-oxo-2-(1-(pyridin-3-yl)-3,4-dihydropyrrolo[1,2-a]pyrazin-2(1H)-yl)ethoxy)ethyl)benzenesulfonamide]
inhibition at 10 µM [1]: 98%
inhibition at 10 µM [2]: 101%

COc1cc(C)c(S(=O)(=O)N(CCOCC(=O)N2CCn3cccc3C2c2ccc(Cl)nc2)CC(C)C)c(C)c1C (centres unmarked) [Example 20, N-(2-(2-(1-(6-chloropyridin-3-yl)-3,4-dihydropyrrolo[1,2-a]pyrazin-2(1H)-yl)-2-oxoethoxy)ethyl)-N-isobutyl-4-methoxy-2,3,6-trimethylbenzenesulfonamide]
inhibition at 10 µM [1]: 98%
inhibition at 10 µM [2]: 84%

COc1cc(C)c(S(=O)(=O)N(CCOCC(=O)N2CCn3ccnc3C2)CC(C)C)c(C)c1C [Example 21, N-(2-(2-(5,6-dihydroimidazo[1,2-a]pyrazin-7(8H)-yl)-2-oxoethoxy)ethyl)-N-isobutyl-4-methoxy-2,3,6-trimethylbenzenesulfonamide]
inhibition at 10 µM [1]: 100%
inhibition at 10 µM [2]: 31%

COc1ccc(C2c3cccn3CCN2C(=O)COCCN(CC(C)C)S(=O)(=O)c2c(C)cc(OC)c(C)c2C)cc1 (centres unmarked) [Example 22, N-isobutyl-4-methoxy-N-(2-(2-(1-(4-methoxyphenyl)-3,4-dihydropyrrolo[1,2-a]pyrazin-2(1H)-yl)-2-oxoethoxy)ethyl)-2,3,6-trimethylbenzenesulfonamide]
inhibition at 10 µM [1]: 97%
inhibition at 10 µM [2]: 53%

COc1cc(C)c(S(=O)(=O)N(CCOCC(=O)N2CCn3cccc3C2c2ccccc2)CC(C)C)c(C)c1C (centres unmarked) [Example 23, N-isobutyl-4-methoxy-2,3,6-trimethyl-N-(2-(2-oxo-2-(1-phenyl-3,4-dihydropyrrolo[1,2-a]pyrazin-2(1H)-yl)ethoxy)ethyl)benzenesulfonamide]
inhibition at 10 µM [1]: 97%
inhibition at 10 µM [2]: 47%

COc1cc(C)c(S(=O)(=O)N(CCOCC(=O)N2CCn3cccc3C2c2cccc(F)c2)CC(C)C)c(C)c1C (centres unmarked) [Example 24, N-(2-(2-(1-(3-fluorophenyl)-3,4-dihydropyrrolo[1,2-a]pyrazin-2(1H)-yl)-2-oxoethoxy)ethyl)-N-isobutyl-4-methoxy-2,3,6-trimethylbenzenesulfonamide]
inhibition at 10 µM [1]: 99%
inhibition at 10 µM [2]: 32%

COc1cc(C)c(S(=O)(=O)N(CCOCC(=O)N2CCn3cccc3C2c2cccs2)CC(C)C)c(C)c1C (centres unmarked) [Example 25, N-isobutyl-4-methoxy-2,3,6-trimethyl-N-(2-(2-oxo-2-(1-(thiophen-2-yl)-3,4-dihydropyrrolo[1,2-a]pyrazin-2(1H)-yl)ethoxy)ethyl)benzenesulfonamide]
inhibition at 10 µM [1]: 98%
inhibition at 10 µM [2]: 55%

COc1cccc(C2c3cccn3CCN2C(=O)COCCN(CC(C)C)S(=O)(=O)c2c(C)cc(OC)c(C)c2C)c1 (centres unmarked) [Example 26, N-isobutyl-4-methoxy-N-(2-(2-(1-(3-methoxyphenyl)-3,4-dihydropyrrolo[1,2-a]pyrazin-2(1H)-yl)-2-oxoethoxy)ethyl)-2,3,6-trimethylbenzenesulfonamide]
inhibition at 10 µM [1]: 99%
inhibition at 10 µM [2]: 34%

COc1c(C)cc(S(=O)(=O)N(C)CCOCC(=O)N2CCn3cccc3C2C(C)(C)C)c(C)c1C (centres unmarked) [Example 27, N-(2-(2-(1-tert-butyl-3,4-dihydropyrrolo[1,2-a]pyrazin-2(1H)-yl)-2-oxoethoxy)ethyl)-4-methoxy-N,2,3,5-tetramethylbenzenesulfonamide]
inhibition at 10 µM [1]: 98%
inhibition at 10 µM [2]: 95%

COc1c(C)cc(S(=O)(=O)N(C)CCOCC(=O)N2CCn3cccc3C2C)c(C)c1C (centres unmarked) [Example 28, 4-methoxy-N,2,3,5-tetramethyl-N-(2-(2-(1-methyl-3,4-dihydropyrrolo[1,2-a]pyrazin-2(1H)-yl)-2-oxoethoxy)ethyl)benzenesulfonamide]
inhibition at 10 µM [1]: 81%
inhibition at 10 µM [2]: 37%

COc1c(C)cc(S(=O)(=O)N(C)CCOCC(=O)N2CCn3cccc3C2c2cccnc2)c(C)c1C (centres unmarked) [Example 29, 4-methoxy-N,2,3,5-tetramethyl-N-(2-(2-oxo-2-(1-(pyridin-3-yl)-3,4-dihydropyrrolo[1,2-a]pyrazin-2(1H)-yl)ethoxy)ethyl)benzenesulfonamide]
inhibition at 10 µM [1]: 79%
inhibition at 10 µM [2]: 96%

COc1c(C)cc(S(=O)(=O)N(C)CCOCC(=O)N2CCn3cccc3C2c2ccc(Cl)nc2)c(C)c1C (centres unmarked) [Example 30, N-(2-(2-(1-(6-chloropyridin-3-yl)-3,4-dihydropyrrolo[1,2-a]pyrazin-2(1H)-yl)-2-oxoethoxy)ethyl)-4-methoxy-N,2,3,5-tetramethylbenzenesulfonamide]
inhibition at 10 µM [1]: 76%
inhibition at 10 µM [2]: 98%
